The text below walks through data of the NIST ThermoML archive (doi:10.1021/acs.jced.5b00807).

For data set [1] the following is noted: DSC. For orientation: In DSC, transitions show as peaks or steps in heat flow.
Data set [2] can be described thus: Molar enthalpy of transition or fusion. As to conditions: Crystal 2; DSC.

Numbers after ± are expanded uncertainties.

Turning to `CCCCCCCCCCCCCCCC[N+](C)(C)C.O=S(=O)([N-]S(=O)(=O)C(F)(F)F)C(F)(F)F`, the values for the Triple point temperature in data set [1] (Crystal 1) and in data set [1] (Crystal 2) were 335 ± 4 K and 319 ± 4 K, respectively. Also, the “Molar enthalpy of transition or fusion” value in data set [2] amounted to 29.4 ± 3 kJ/mol.
In the case of `CC[N+](C)(C)C.O=S(=O)([N-]S(=O)(=O)C(F)(F)F)C(F)(F)F` [ethyltrimethylammonium bis(trifluoromethylsulfonyl)imide], the Triple point temperature in data set [1] (Crystal) worked out at 383 ± 4 K.
Take `O=S(=O)([N-]S(=O)(=O)C(F)(F)F)C(F)(F)F.[Li+]` [lithium bis((trifluoromethyl)sulfonyl)amide]: the Triple point temperature in data set [1] (Crystal 1) is 508 ± 4 K; in data set [1] (Crystal 2) it was 422 ± 4 K. In addition, the “Molar enthalpy of transition or fusion” value in data set [2] turned out to be 11.9 ± 1.2 kJ/mol.
For the molecule `CCCC[N+](CCCC)(CCCC)CCCC.O=S(=O)([N-]S(=O)(=O)C(F)(F)F)C(F)(F)F` [tetrabutylammonium bis[(trifluoromethyl)sulfonyl]imide], the Triple point temperature in data set [1] (Crystal) was determined as 365 ± 4 K.
